This is an account of results in patent publication US20230172206A1 (BASF SE, priority 2020, published 2023).

Experiment [1] has as its system Cercospora sojina. It counts as cell-based. The settings on record: 4 ppm, 7 days after inoculation, relative to compound-free control (100%).
The subject of experiment [2] is Phakopsora pachyrhizi (F129L). As to the kind of experiment: Protective control of soybean rust on soybeans (PHAKPA P6). It counts as in vivo. Conditions: for % PHAKPA (F129L) Disease level P6 at 4 ppm: protective P6, 4 ppm; for % PHAKPA (F129L) Disease level P6 at 4 ppm / % PHAKPA (F129L) Disease level P6 at 16 ppm: F129L isolate; for % PHAKPA (F129L) Disease level P6 at 16 ppm: protective P6, 16 ppm.

For experiment [3], the system named is Phakopsora pachyrhizi (F129L). Kind of experiment: Protective control of soybean rust on soybeans (PHAKPA P2). The settings on record: for % PHAKPA (F129L) Disease level P2 at 4 ppm: protective P2, 4 ppm; for % PHAKPA (F129L) Disease level P2 at 4 ppm / % PHAKPA (F129L) Disease level P2 at 16 ppm: F129L isolate; for % PHAKPA (F129L) Disease level P2 at 16 ppm: protective P2, 16 ppm. It counts as in vivo.

Experiment [4] has as its system Phakopsora pachyrhizi (wt). As to the kind of experiment: Protective control of soybean rust on detached soybean leaves (PHAKPA P1 DL), Qo inhibitor-sensitive wt isolate. The experiment is classed as in vivo.
In experiment [5] the test system is Phakopsora pachyrhizi (F129L). As to the kind of experiment: Protective control of soybean rust on detached soybean leaves (PHAKPA P1 DL), F129L isolate. It counts as in vivo.
The test system of experiment [6] is Alternaria solani (F129L). As to the kind of experiment: Micro titer plate test against early blight (ALTESO F129L). The experiment is classed as cell-based. Conditions: 4 ppm, 7 days after inoculation, relative to compound-free control (100%).

With `CO/N=C(/C(=O)OC)c1cccc(C)c1CO/N=C(\OC)c1cccc(C(F)(F)F)c1`, the “Fungal growth (%) CERCSO” value in experiment [1] amounted to 56%.
As to `CO/C=C(/C(=O)OC)c1cccc(C)c1CO/N=C(\C)c1ccc(-c2ccc(F)cc2)cc1C(F)(F)F` [compound 432], in experiment [2], the “% PHAKPA (F129L) Disease level P6 at 4 ppm” value is 13% and the “% PHAKPA (F129L) Disease level P6 at 16 ppm” value is reported as 3%. For the same molecule, in experiment [3], the “% PHAKPA (F129L) Disease level P2 at 4 ppm” value is given as 12% and the “% PHAKPA (F129L) Disease level P2 at 16 ppm” value was 0%.
On to `CO/C=C(/C(=O)OC)c1cccc(C)c1CO/N=C(\C)c1ccc(-c2ccccc2)cc1OC(F)(F)F` [compound 433], for which, in experiment [2], the “% PHAKPA (F129L) Disease level P6 at 4 ppm” value stood at 80% and the “% PHAKPA (F129L) Disease level P6 at 16 ppm” value amounted to 57%. Further, in experiment [3], the “% PHAKPA (F129L) Disease level P2 at 4 ppm” value is given as 83% and the “% PHAKPA (F129L) Disease level P2 at 16 ppm” value was determined as 67%.
For `CNC(=O)/C(=N/OC)c1cccc(C)c1CO/N=C(\C)c1ccc(-c2ccccc2)cc1OC(F)(F)F` [compound 435], in that order: 87%, 60%, 93% and 57%.
For `CO/C=C(/C(=O)OC)c1cccc(C)c1CO/N=C(\C)c1c(Cl)cc(Cl)cc1OC(F)(F)F` [compound 436], in experiment [2], the “% PHAKPA (F129L) Disease level P6 at 4 ppm” value is listed as 73% and the “% PHAKPA (F129L) Disease level P6 at 16 ppm” value was determined as 27%. Further, in experiment [3], the “% PHAKPA (F129L) Disease level P2 at 4 ppm” value is 70% and the “% PHAKPA (F129L) Disease level P2 at 16 ppm” value is 15%.
For `CO/C=C(/C(=O)OC)c1cccc(C)c1CO/N=C(\C)c1ccccc1CC(F)(F)F` [compound 437], in experiment [2], the “% PHAKPA (F129L) Disease level P6 at 4 ppm” value came out at 8% and the “% PHAKPA (F129L) Disease level P6 at 16 ppm” value is recorded as 0%. In experiment [3], the “% PHAKPA (F129L) Disease level P2 at 4 ppm” value stood at 2% and the “% PHAKPA (F129L) Disease level P2 at 16 ppm” value came to 0%.
Consider `CNC(=O)/C(=N/OC)c1cccc(C)c1CO/N=C(\C)c1c(Cl)ccc(F)c1OC(F)(F)F` [compound 440], for which, in experiment [2], the “% PHAKPA (F129L) Disease level P6 at 4 ppm” value came to 73% and the “% PHAKPA (F129L) Disease level P6 at 16 ppm” value stood at 23%. In experiment [3], the “% PHAKPA (F129L) Disease level P2 at 4 ppm” value came to 93% and the “% PHAKPA (F129L) Disease level P2 at 16 ppm” value is on record as 23%.
Turning to `CNC(=O)/C(=N/OC)c1cccc(C)c1CO/N=C(\C)c1c(Cl)ccc(Cl)c1OC(F)(F)F` [compound 441], in experiment [2], the “% PHAKPA (F129L) Disease level P6 at 4 ppm” value came to 97% and the “% PHAKPA (F129L) Disease level P6 at 16 ppm” value was determined as 50%. For the same molecule, in experiment [3], the “% PHAKPA (F129L) Disease level P2 at 4 ppm” value is given as 100% and the “% PHAKPA (F129L) Disease level P2 at 16 ppm” value came out at 43%.
As for `CO/C=C(/C(=O)OC)c1cccc(C)c1CO/N=C(\C)c1c(Cl)ccc(F)c1OC(F)(F)F` [compound 442], in experiment [2], the “% PHAKPA (F129L) Disease level P6 at 4 ppm” value stood at 80% and the “% PHAKPA (F129L) Disease level P6 at 16 ppm” value was 77%. In experiment [3], the “% PHAKPA (F129L) Disease level P2 at 4 ppm” value was 100% and the “% PHAKPA (F129L) Disease level P2 at 16 ppm” value came out at 93%.
For `CO/C=C(/C(=O)OC)c1cccc(C)c1CO/N=C(\C)c1c(Cl)ccc(Cl)c1OC(F)(F)F` [compound 444], in experiment [2], the “% PHAKPA (F129L) Disease level P6 at 4 ppm” value was 83% and the “% PHAKPA (F129L) Disease level P6 at 16 ppm” value worked out at 53%. In experiment [3], the “% PHAKPA (F129L) Disease level P2 at 4 ppm” value worked out at 100% and the “% PHAKPA (F129L) Disease level P2 at 16 ppm” value is recorded as 47%.
In the case of `CO/C=C(/C(=O)OC)c1cccc(C)c1CO/N=C(\C)c1ccc(Br)cc1C(F)(F)F` [compound 445], in experiment [2], the “% PHAKPA (F129L) Disease level P6 at 4 ppm” value is given as 30% and the “% PHAKPA (F129L) Disease level P6 at 16 ppm” value is listed as 2%. In addition, in experiment [3], the “% PHAKPA (F129L) Disease level P2 at 4 ppm” value is 15% and the “% PHAKPA (F129L) Disease level P2 at 16 ppm” value is 1%.
On the same counts, the results for `CO/C=C(/C(=O)OC)c1cccc(C)c1CO/N=C(\C)c1ccc(C)cc1C(F)(F)F` [compound 446] are 6%, 0%, 2% and 0%.
For `CO/N=C(/C(=O)OC)c1cccc(C)c1CO/N=C(\C)c1ccc(F)c(F)c1OC(F)(F)F` [compound 447], in that order: 33%, 1%, 7% and 0%.
Turning to `CNC(=O)/C(=N/OC)c1cccc(C)c1CO/N=C(\C)c1ccc(Cl)c(F)c1OC(F)(F)F` [compound 449], in experiment [2], the “% PHAKPA (F129L) Disease level P6 at 4 ppm” value amounted to 57% and the “% PHAKPA (F129L) Disease level P6 at 16 ppm” value worked out at 9%. For the same molecule, in experiment [3], the “% PHAKPA (F129L) Disease level P2 at 4 ppm” value came to 33% and the “% PHAKPA (F129L) Disease level P2 at 16 ppm” value amounted to 10%.
On the same counts, the results for `CO/C=C(/C(=O)OC)c1cccc(C)c1CO/N=C(\C)c1ccc(F)c(F)c1OC(F)(F)F` [compound 450] are 4%, 1%, 3% and 1%.
With `CNC(=O)/C(=N/OC)c1cccc(C)c1CO/N=C(\C)c1ccc(F)c(F)c1OC(F)(F)F` [compound 451], in experiment [2], the “% PHAKPA (F129L) Disease level P6 at 4 ppm” value came out at 2% and the “% PHAKPA (F129L) Disease level P6 at 16 ppm” value came out at 0%. In addition, in experiment [3], the “% PHAKPA (F129L) Disease level P2 at 4 ppm” value was 1% and the “% PHAKPA (F129L) Disease level P2 at 16 ppm” value was 0%.
Regarding `CO/C=C(/C(=O)OC)c1cccc(C)c1CO/N=C(\C)c1ccc(Cl)c(F)c1OC(F)(F)F` [compound 452], in experiment [2], the “% PHAKPA (F129L) Disease level P6 at 4 ppm” value turned out to be 70% and the “% PHAKPA (F129L) Disease level P6 at 16 ppm” value was 14%. Moreover, in experiment [3], the “% PHAKPA (F129L) Disease level P2 at 4 ppm” value stood at 60% and the “% PHAKPA (F129L) Disease level P2 at 16 ppm” value is 6%.
For `CNC(=O)/C(=N/OC)c1cccc(C)c1CO/N=C(/c1ccccc1)C(F)(F)F` [compound 458], in that order: 83%, 50%, 93% and 57%.
For `CNC(=O)/C(=N/OC)c1cccc(OC)c1CO/N=C(\C)c1cccc(C(F)(F)F)c1` [compound 461], in that order: 52%, 6%, 26% and 2%.
On the same counts, the results for `CO/C=C(/C(=O)OC)c1cccc(C)c1CO/N=C(\C)c1ccccc1OC(F)(F)F` [compound 462] are 55%, 10%, 37% and 6%.
With `CO/C=C(/C(=O)OC)c1cccc(C)c1CO/N=C(\C)c1ccc(OC(F)(F)F)cc1Cl` [compound 463], in experiment [2], the “% PHAKPA (F129L) Disease level P6 at 4 ppm” value is 3% and the “% PHAKPA (F129L) Disease level P6 at 16 ppm” value is given as 0%. In addition, in experiment [3], the “% PHAKPA (F129L) Disease level P2 at 4 ppm” value was 6% and the “% PHAKPA (F129L) Disease level P2 at 16 ppm” value is 0%.
As to `CO/C=C(/C(=O)OC)c1cccc(C)c1CO/N=C(\C)c1ccc(OC)cc1C(F)(F)F` [compound 464], in experiment [2], the “% PHAKPA (F129L) Disease level P6 at 4 ppm” value is 8% and the “% PHAKPA (F129L) Disease level P6 at 16 ppm” value came to 0%. For the same molecule, in experiment [3], the “% PHAKPA (F129L) Disease level P2 at 4 ppm” value worked out at 1% and the “% PHAKPA (F129L) Disease level P2 at 16 ppm” value amounted to 0%.
Take `Cc1cccc(-n2nnn(C)c2=O)c1COc1ccn(-c2ccc(Cl)cc2)n1` [drawing 932, reference compound]: the “PHAKPA P1 DL Disease level (%) Qo I-sensitive wt isolate (0 % F129L)” value in experiment [4] (test concentration 0.3 ppm) was 78%; in experiment [4] (test concentration 1 ppm), 80%; in experiment [4] (test concentration 3 ppm) it was 77%; in experiment [4] (test concentration 10 ppm), 48%; in experiment [4] (test concentration 30 ppm) it was 30%; in experiment [4] (test concentration 100 ppm), 18%. For the same molecule, the “PHAKPA P1 DL Disease level (%) Qo I-sensitive wt isolate (0 % F129L)” value in experiment [4] (test concentration 300 ppm) came to 5%.
For `Cc1cccc(-n2nnn(C)c2=O)c1COc1ccn(-c2ccc(Cl)cc2)n1` [drawing 934, reference compound], the “PHAKPA P1 DL Disease level (%) Qo I-resistant F129L isolate (100 % F129L)” value stood at 88% in experiment [5] (test concentration 0.3 ppm); 90% in experiment [5] (test concentration 1 ppm); 95% in experiment [5] (test concentration 3 ppm); 92% in experiment [5] (test concentration 10 ppm); 90% in experiment [5] (test concentration 30 ppm); 65% in experiment [5] (test concentration 100 ppm). The “PHAKPA P1 DL Disease level (%) Qo I-resistant F129L isolate (100 % F129L)” value in experiment [5] (test concentration 300 ppm) was 52%.
With `CO/N=C(/C(=O)OC)c1cccc(C)c1CO/N=C(\C)c1cccc(OC(F)(F)F)c1` [drawing 940], the “Fungal growth (%) ALTESO F129L” value in experiment [6] was 87%.
Consider `CNC(=O)/C(=N/OC)c1cccc(C)c1CO/N=C(\OC)c1cccc(C(F)(F)F)c1` [drawing 950], for which the “Fungal growth (%) CERCSO” value in experiment [1] is given as 60%.
Consider `CO/N=C(/C(=O)OC)c1cccc(C)c1CO/N=C(\SC)c1cccc(Cl)c1` [drawing 965], for which, in experiment [1], the “Fungal growth (%) CERCSO” value is on record as 62%.
Consider `CO/N=C(/C(=O)OC)c1cccc(C)c1CO/N=C(/c1cccc(Cl)c1)C1CC1` [drawing 966], for which the “Fungal growth (%) CERCSO” value in experiment [1] was 61%.
For `CNC(=O)/C(=N/OC)c1cccc(C)c1CO/N=C(\SC)c1cccc(Cl)c1` [drawing 970], the “Fungal growth (%) CERCSO” value in experiment [1] is on record as 78%.
Regarding `CNC(=O)/C(=N/OC)c1ccccc1CO/N=C(\C)c1cc(F)ccc1F` [reference compound], in experiment [2] (protective, inoculation six days after spraying, 16 ppm, % diseased leaf area), the “PHAKPA (F129L) Disease level (%) P6 at 16 ppm” value amounted to 22%. For the same molecule, the “PHAKPA (F129L) Disease level (%) P2 at 16 ppm” value in experiment [3] (protective, inoculation 2 days after spraying, 16 ppm, % diseased leaf area) was 1%.
